Results on four molecules are retold here after ChEMBL document CHEMBL3045159, “Computational evaluation and experimental in vitro antibacterial, antifungal and antiviral activity of bis-Schiff bases of isatin and its derivatives” (Med Chem Res, 2013).

Values after ≈ are worked out from the molar mass of the structure shown.

One data set deals with Saccharomyces cerevisiae. As to the kind of experiment: Antifungal activity against Saccharomyces cerevisiae ATCC 28383. In kind it is functional.
A further data set concerns Staphylococcus aureus. As to the kind of experiment: Antibacterial activity against Staphylococcus aureus CIP 4.83. The format is functional.
The subject of data set [1] is Respiratory syncytial virus. Briefly: Antiviral activity against Respiratory syncytial virus infected HeLa cells. Conditions: human respiratory syncytial virus. The format is functional.
The subject of data set [2] is Coxsackievirus B4. Briefly: Antiviral activity against Human coxsackievirus B4 infected HeLa cells. To be noted: Enterovirus B. In kind it is functional.
Data set [3] deals with Vesicular stomatitis virus. Briefly: Antiviral activity against Vesicular stomatitis virus infected HeLa. In kind it is functional.
Data set [4] concerns Coxsackievirus B4. As to the kind of experiment: Antiviral activity against Human coxsackievirus B4 infected Vero cells. The format is functional. Conditions: Enterovirus B.
The next data set concerns Punta Toro virus. Briefly: Antiviral activity against Punta Toro virus infected Vero cells. The format is functional.
In a further data set the test system is Sindbis virus. Briefly: Antiviral activity against Sindbis virus infected Vero cells. The format is functional.
A further data set has as its system Escherichia coli. As to the kind of experiment: Antibacterial activity against Escherichia coli CIP 54127. The format is functional.
In a further data set the test system is Candida albicans. As to the kind of experiment: Antifungal activity against Candida albicans CIP 1180-79. In kind it is functional.
In data set [5] the test system is Mammalian orthoreovirus 1. As to the kind of experiment: Antiviral activity against Mammalian orthoreovirus 1 infected Vero cells. In kind it is functional.
The subject of another data set is Human respirovirus 3. Briefly: Antiviral activity against Human parainfluenza virus 3 infected Vero cells. The format is functional.
In data set [6] the test system is Human alphaherpesvirus 1. Briefly: Antiviral activity against thymidine kinase-deficient, acylcovir-resistant Human herpesvirus 1 strain KOS infected in HEL cells. The format is functional. To be noted: Human alphaherpesvirus 1, KOS.
Data set [7] concerns Vesicular stomatitis virus. Briefly: Antiviral activity against Vesicular stomatitis virus infected HEL cells. In kind it is functional.
The next data set concerns Vaccinia virus. Briefly: Antiviral activity against Vaccinia virus infected HEL cells. In kind it is functional. Conditions: Orthopoxvirus vaccinia.
The subject of the next data set is Human alphaherpesvirus 2. Briefly: Antiviral activity against Human herpesvirus 2 strain G infected HEL cells. In kind it is functional. To be noted: Human alphaherpesvirus 2, strain G.
Data set [8] deals with Human alphaherpesvirus 1. Briefly: Antiviral activity against Human herpesvirus 1 strain KOS infected in HEL cells. The format is functional. Conditions: Human alphaherpesvirus 1, KOS.
A short description of data set [9]: Cytotoxicity against Homo sapiens (human) HeLa cells. The format is cell-based.
Data set [10] is described as follows: Cytotoxicity against Homo sapiens (human) HEL cells. The format is cell-based.
Data set [11] in a line: Cytotoxicity against Chlorocebus aethiops (African green monkey) Vero cells. Conditions: chlorocebus sabaeus. In kind it is cell-based.

For `O=C1Nc2ccc(F)cc2/C1=N/c1ccc(Oc2ccc(/N=C3\C(=O)Nc4ccc(F)cc43)cc2)cc1`, the MIC in the data set on Saccharomyces cerevisiae was less than 50 µg/mL; with Staphylococcus aureus, less than 50 µg/mL; in data set [1], greater than 16 µg/mL; against Coxsackievirus B4 [2], greater than 16 µg/mL; in [3], greater than 16 µg/mL; against Coxsackievirus B4 [4], greater than 8 µg/mL. Besides, the MIC with Punta Toro virus was greater than 8 µg/mL; against Sindbis virus, greater than 8 µg/mL; in the data set on Escherichia coli, less than 50 µg/mL; in the data set with Candida albicans, less than 50 µg/mL; in [5], greater than 8 µg/mL; against Human respirovirus 3, greater than 8 µg/mL. In addition, the MIC (in the data set on Human alphaherpesvirus 1 [6]; in [7]; with Vaccinia virus; against Human alphaherpesvirus 2; with Human alphaherpesvirus 1 [8]) was greater than 1.6 µg/mL each time. Also, the figures for the MCC in data set [9], in data set [10] and in data set [11] were no less than 16 µg/mL, 8 µg/mL and 40 µg/mL, respectively.
Take `O=C1Nc2ccc(F)cc2/C1=N\c1cccc(Cc2cccc(/N=C3/C(=O)Nc4ccc(F)cc43)c2)c1`: the MIC in the data set on Saccharomyces cerevisiae was less than 50 µg/mL; with Staphylococcus aureus, less than 50 µg/mL; in data set [1], greater than 16 µg/mL; against Coxsackievirus B4 [2], greater than 16 µg/mL; in data set [3], 9.6 µg/mL (≈ 19.5 µM); against Coxsackievirus B4 [4] it was greater than 16 µg/mL. Moreover, the MIC is greater than 16 µg/mL against Punta Toro virus; greater than 16 µg/mL with Sindbis virus; less than 50 µg/mL with Escherichia coli; less than 50 µg/mL in the data set on Candida albicans; greater than 16 µg/mL in [5]; greater than 16 µg/mL with Human respirovirus 3. The MIC (in the data set on Human alphaherpesvirus 1 [6]; in data set [7]; in the data set on Vaccinia virus; in the data set with Human alphaherpesvirus 2; with Human alphaherpesvirus 1 [8]) was greater than 16 µg/mL each time. The MCC in [9], in [10] and in data set [11] was 80 µg/mL in each case.
`O=C1Nc2ccccc2/C1=N/c1ccc(C(=O)c2ccc(/N=C3\C(=O)Nc4ccccc43)cc2)cc1`: the MIC in the data set with Saccharomyces cerevisiae was less than 50 µg/mL; in the data set with Staphylococcus aureus, less than 50 µg/mL; in data set [1], greater than 16 µg/mL; in the data set on Coxsackievirus B4 [2] it was greater than 16 µg/mL; in data set [3], 48 µg/mL (≈ 102 µM); in the data set on Coxsackievirus B4 [4] it was greater than 16 µg/mL. Moreover, the MIC in the data set on Punta Toro virus was greater than 16 µg/mL; against Sindbis virus, greater than 16 µg/mL; in the data set on Escherichia coli, less than 50 µg/mL; in the data set on Candida albicans, less than 50 µg/mL; in data set [5], greater than 16 µg/mL; with Human respirovirus 3, greater than 16 µg/mL. The MIC (against Human alphaherpesvirus 1 [6]; in data set [7]; with Vaccinia virus; against Human alphaherpesvirus 2; against Human alphaherpesvirus 1 [8]) was greater than 16 µg/mL each time. Further, the MCC is 80 µg/mL in data set [9], 80 µg/mL in [10] and no less than 16 µg/mL in [11].
For `O=C1Nc2ccccc2/C1=N\c1ccc(Oc2cccc(/N=C3/C(=O)Nc4ccccc43)c2)cc1`, the MIC with Saccharomyces cerevisiae is less than 50 µg/mL; against Staphylococcus aureus, less than 50 µg/mL; in data set [1], greater than 16 µg/mL; with Coxsackievirus B4 [2], greater than 16 µg/mL; in data set [3], greater than 16 µg/mL; in the data set on Coxsackievirus B4 [4], greater than 80 µg/mL. The MIC in the data set with Punta Toro virus is greater than 80 µg/mL; in the data set with Sindbis virus, greater than 80 µg/mL; in the data set on Escherichia coli, less than 50 µg/mL; against Candida albicans, less than 50 µg/mL; in [5], greater than 80 µg/mL; against Human respirovirus 3, greater than 80 µg/mL. The MIC (against Human alphaherpesvirus 1 [6]; in [7]; with Vaccinia virus; against Human alphaherpesvirus 2; with Human alphaherpesvirus 1 [8]) was greater than 80 µg/mL throughout. Besides, the results for the MCC in data set [9], in data set [10] and in data set [11] were no less than 16 µg/mL, 400 µg/mL and 400 µg/mL, respectively.
